Toxic doses and inconclusive results are not listed.
Tested on: BDF1 mice, P388 leukemia ip, median survival T/C
Assay: NCI In Vivo Anticancer Drug Screen. Data for tumor model P388 Leukemia (intraperitoneal) in B6D2F1 (BDF1) mice
Details: endpoint: median survival time, higher = longer survival
Summary of the method: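 In tumour-bearing mice, survival after compound treatment is set against the vehicle group and given as a quotient.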

[1] = dose: 100.0 mg/kg/injection, schedule: Q01DX009 (ip), vehicle: saline with Tween-80
[2] = dose: 200.0 mg/kg/injection, schedule: Q01DX009 (ip), vehicle: saline with Tween-80
[3] = dose: 50.0 mg/kg/injection, schedule: Q01DX009 (ip), vehicle: saline with Tween-80
[4] = dose: 100.0 mg/kg/injection, schedule: Q04DX003 (ip), vehicle: saline with Tween-80
[5] = dose: 200.0 mg/kg/injection, schedule: Q04DX003 (ip), vehicle: saline with Tween-80
[6] = dose: 100.0 mg/kg/injection, schedule: Q04DX003 (ip), vehicle: saline
[7] = dose: 200.0 mg/kg/injection, schedule: Q04DX003 (ip), vehicle: saline
[8] = dose: 400.0 mg/kg/injection, schedule: Q04DX003 (ip), vehicle: saline

Cc1ccn(/C(N)=N/C(=S)Nc2ccccc2)n1
T/C (dose: 37.5 mg/kg/injection, schedule: Q01DX009 (ip), vehicle: saline with Tween-80): 108 % of control
T/C (dose: 75.0 mg/kg/injection, schedule: Q01DX009 (ip), vehicle: saline with Tween-80): 90 % of control
T/C (dose: 150.0 mg/kg/injection, schedule: Q01DX009 (ip), vehicle: saline with Tween-80): 114 % of control

CCOc1ccc2[nH]c(=S)sc2c1
T/C (dose: 100.0 mg/kg/injection, schedule: Q01DX001 (ip), vehicle: Klucel (hydroxypropylcellulose) (HPC)): 116 % of control
T/C (dose: 200.0 mg/kg/injection, schedule: Q01DX001 (ip), vehicle: Klucel (hydroxypropylcellulose) (HPC)): 91 % of control
T/C (dose: 400.0 mg/kg/injection, schedule: Q01DX001 (ip), vehicle: Klucel (hydroxypropylcellulose) (HPC)): 95 % of control

Cc1ccc2c(c1)C(c1ccccc1)(c1ccccc1)OC2=O
T/C [1]: 100 % of control
T/C [2]: 90 % of control
T/C (dose: 400.0 mg/kg/injection, schedule: Q01DX009 (ip), vehicle: saline with Tween-80): 100 % of control

CC1(c2ccco2)C(=O)NC(=O)N1C(=O)CCl (stereo not given)
T/C [3]: 100 % of control
T/C [1]: 100 % of control
T/C [4]: 96 % of control
T/C [5]: 96 % of control

CCOC(=O)N1C=Cn2c(cnc2C)C1O (stereo not given)
T/C (dose: 50.0 mg/kg/injection, schedule: Q01DX009 (ip), vehicle: saline): 105 % of control
T/C (dose: 50.0 mg/kg/injection, schedule: Q01DX009 (ip), vehicle: water): 110 % of control
T/C (dose: 100.0 mg/kg/injection, schedule: Q01DX009 (ip), vehicle: saline): 97 % of control
T/C (dose: 100.0 mg/kg/injection, schedule: Q01DX009 (ip), vehicle: water): 103 % of control
T/C [6]: 100 % of control
T/C (dose: 100.0 mg/kg/injection, schedule: Q04DX003 (ip), vehicle: water): 96 % of control
T/C (dose: 200.0 mg/kg/injection, schedule: Q01DX009 (ip), vehicle: water): 94 % of control
T/C [7]: 102 % of control
T/C (dose: 200.0 mg/kg/injection, schedule: Q04DX003 (ip), vehicle: water): 96 % of control
T/C (dose: 400.0 mg/kg/injection, schedule: Q01DX009 (ip), vehicle: water): 94 % of control
T/C [8]: 93 % of control
T/C (dose: 400.0 mg/kg/injection, schedule: Q04DX003 (ip), vehicle: water): 88 % of control

CC1(C)C2CCC1(C)C(OC(=O)c1ccc([N+](=O)[O-])cc1)C2OC(=O)c1ccc([N+](=O)[O-])cc1 (stereo not given)
T/C (dose: 75.0 mg/kg/injection, schedule: Q04DX003 (ip), vehicle: other): 100 % of control
T/C (dose: 150.0 mg/kg/injection, schedule: Q04DX003 (ip), vehicle: other): 91 % of control
T/C (dose: 300.0 mg/kg/injection, schedule: Q04DX003 (ip), vehicle: other): 91 % of control

ICC1(CI)CCCCC1
T/C (dose: 100.0 mg/kg/injection, schedule: Q01DX001 (ip), vehicle: saline with Tween-80): 100 % of control
T/C (dose: 200.0 mg/kg/injection, schedule: Q01DX001 (ip), vehicle: saline with Tween-80): 108 % of control

O=[N+]([O-])/C=C\c1cc2c3c(c1)CCCN3CCC2
T/C (dose: 3.13 mg/kg/injection, schedule: Q01DX001 (ip), vehicle: saline with Tween-80): 100 % of control
T/C (dose: 6.25 mg/kg/injection, schedule: Q01DX001 (ip), vehicle: saline with Tween-80): 100 % of control
T/C (dose: 12.5 mg/kg/injection, schedule: Q01DX001 (ip), vehicle: saline with Tween-80): 104 % of control

O=C(/C=C/c1cccc([N+](=O)[O-])c1)NCCBr
T/C [6]: 90 % of control
T/C [7]: 100 % of control
T/C [8]: 100 % of control

Cc1c(Cl)cnc(N)c1Cl (tested in a mixture with another compound)
T/C [3]: 96 % of control
T/C [1]: 156 % of control
T/C [2]: 105 % of control

CCOC(=O)C(=CN(C(C)C)C(C)C)C(=O)OCC
T/C (dose: 50.0 mg/kg/injection, schedule: Q04DX003 (ip), vehicle: saline with Tween-80): 109 % of control
T/C [4]: 104 % of control
T/C [5]: 109 % of control

O=C(NCCBr)Nc1ccccc1C(F)(F)F
T/C (dose: 100.0 mg/kg/injection, schedule: Q04DX003 (ip), vehicle: Klucel (hydroxypropylcellulose) (HPC)): 95 % of control
T/C (dose: 200.0 mg/kg/injection, schedule: Q04DX003 (ip), vehicle: Klucel (hydroxypropylcellulose) (HPC)): 109 % of control
T/C (dose: 400.0 mg/kg/injection, schedule: Q04DX003 (ip), vehicle: Klucel (hydroxypropylcellulose) (HPC)): 109 % of control
